Patent publication US9073855B2, “BCL-2 selective apoptosis-inducing agents for the treatment of cancer and immune diseases” (AbbVie Inc., priority 2008, dated 2015)

Legend:
[1] = target: GST-Bcl-2 (Homo sapiens, UniProt P10415); experiment: TR-FRET binding assay, GST-Bcl-2 with F-Bak peptide probe; conditions: for Ki: TR-FRET Binding Affinity
Protocol: (§1) Tb-anti-GST antibody was purchased from Invitrogen (Catalog No. PV4216).
(§2) Representative compounds were serially diluted in dimethyl sulfoxide (DMSO) starting at 50 μM (2× starting concentration; 10% DMSO) and 10 μL were transferred into a 384-well plate.
(§3) The samples were then mixed on a shaker for 1 minute and incubated for an additional 3 hours at room temperature. For each assay, the probe/antibody and protein/probe/antibody were included on each assay plate as negative and positive controls, respectively. Fluorescence was measured on the ENVISION plate reader (Perkin Elmer) using a 340/35 nm excitation filter and 520/525 (F-Bak peptide) and 495/510 nm (Tb-labeled […] antibody) emission filters.
(§4) The inhibition constant (Ki) is the dissociation constant of an enzyme-inhibitor complex or a protein/small molecule complex, wherein the small molecule is inhibiting binding of one protein to another protein or peptide. […] Inhibition constants were determined using Wang's equation (Wang Z-X., An Exact Mathematical Expression For Describing Competitive Binding Of Two Different Ligands To A Protein Molecule. FEBS Lett. 1995, 360:111-4).

[2] = target: GST-Bcl-XL (Homo sapiens, UniProt Q07817); experiment: TR-FRET binding assay, GST-Bcl-XL with F-Bak peptide probe; conditions: TR-FRET Binding Affinity
Chain of GST-Bcl-XL (Q07817 whole entry): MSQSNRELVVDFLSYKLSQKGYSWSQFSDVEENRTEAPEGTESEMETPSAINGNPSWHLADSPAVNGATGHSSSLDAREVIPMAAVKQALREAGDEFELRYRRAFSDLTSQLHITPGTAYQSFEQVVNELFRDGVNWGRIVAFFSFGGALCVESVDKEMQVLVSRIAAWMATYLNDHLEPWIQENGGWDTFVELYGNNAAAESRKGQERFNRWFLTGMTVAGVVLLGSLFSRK
Protocol: as §1, §2, §3, §4

[3] = TR-FRET, Bcl-XL Ki divided by Bcl-2 Ki
[4] = ratio of TR-FRET Ki values, Bcl-XL over Bcl-2
[5] = GST-Bcl-XL, F-Bak peptide probe

Chain of GST-Bcl-2 (P10415 whole entry): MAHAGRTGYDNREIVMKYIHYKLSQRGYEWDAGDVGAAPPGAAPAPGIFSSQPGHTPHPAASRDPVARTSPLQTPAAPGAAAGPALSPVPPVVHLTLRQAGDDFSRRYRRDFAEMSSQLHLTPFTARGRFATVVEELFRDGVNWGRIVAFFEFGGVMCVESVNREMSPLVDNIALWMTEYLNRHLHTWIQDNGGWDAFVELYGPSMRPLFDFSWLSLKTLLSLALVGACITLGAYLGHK

Row | SMILES | Ki [1] | Binding selectivity ratio (Bcl-XL Ki/Bcl-2 Ki) [1, 3] | Ki [2] | Ki ([1]; GST-Bcl-2, F-Bak peptide probe) | Binding selectivity ratio (Bcl-XL Ki/Bcl-2 Ki) [1, 4] | Ki [2, 5]
1 | CC1(C)CCC(CN2CCN(c3ccc(C(=O)NS(=O)(=O)c4cnc(OCC5(F)CCN(C6COC6)CC5)c(Cl)c4)c(Oc4cccc5[nH]ncc45)c3)CC2)=C(c2ccc(Cl)cc2)C1 [Example 528, N-[(5-chloro-6-{[4-fluoro-1-(oxetan-3-yl)piperidin-4-yl]methoxy}pyridin-3-yl)sulfonyl]-4-(4-{[2-(4-chlorophenyl)-4,4-dimethylcyclohex-1-en-1-yl]methyl}piperazin-1-yl)-2-(1H-indazol-4-yloxy)benzamide] | < 0.01 nM | >366.9 | 3.67 nM | – | – | –
2 | CC1(C)CCC(CN2CCN(c3ccc(C(=O)NS(=O)(=O)c4ccc(OCC5(F)CCN(C6COC6)CC5)c(C#N)c4)c(Oc4cccc5[nH]ncc45)c3)CC2)=C(c2ccc(Cl)cc2)C1 [Example 534, 4-(4-{[2-(4-chlorophenyl)-4,4-dimethylcyclohex-1-en-1-yl]methyl}piperazin-1-yl)-N-[(3-cyano-4-{[4-fluoro-1-(oxetan-3-yl)piperidin-4-yl]methoxy}phenyl)sulfonyl]-2-(1H-indazol-4-yloxy)benzamide] | < 0.01 nM | >4603.9 | 46 nM | – | – | –
3 | CC1(C)CCC(CN2CCN(c3ccc(C(=O)NS(=O)(=O)c4cnc(OC[C@@H]5CN(C6CC6)CCO5)c(Cl)c4)c(Oc4cccc5[nH]ncc45)c3)CC2)=C(c2ccc(Cl)cc2)C1 [Example 504, N-[(5-chloro-6-{[(2S)-4-cyclopropylmorpholin-2-yl]methoxy}pyridin-3-yl)sulfonyl]-4-(4-{[2-(4-chlorophenyl)-4,4-dimethylcyclohex-1-en-1-yl]methyl}piperazin-1-yl)-2-(1H-indazol-4-yloxy)benzamide] | < 0.01 nM | >549.9 | 5.5 nM | – | – | –
4 | CC1(C)CCC(CN2CCN(c3ccc(C(=O)NS(=O)(=O)c4ccc(NC[C@H]5CN(C6CC6)CCO5)c([N+](=O)[O-])c4)c(Oc4cccc5[nH]cnc45)c3)CC2)=C(c2ccc(Cl)cc2)C1 [Example 530, 2-(1H-benzimidazol-4-yloxy)-4-(4-{[2-(4-chlorophenyl)-4,4-dimethylcyclohex-1-en-1-yl]methyl}piperazin-1-yl)-N-{[4-({[(2S)-4-cyclopropylmorpholin-2-yl]methyl}amino)-3-nitrophenyl]sulfonyl}benzamide] | < 0.01 nM | >7666.0 | 76.7 nM | – | – | –
5 | COc1ccc(Nc2ccc(S(=O)(=O)NC(=O)c3ccc(N4CCN(CC5=C(c6ccc(Cl)cc6)CC(C)(C)CC5)CC4)cc3Oc3ccc4[nH]ccc4c3)cc2[N+](=O)[O-])cc1O [Example 394, 4-(4-{[2-(4-chlorophenyl)-4,4-dimethylcyclohex-1-en-1-yl]methyl}piperazin-1-yl)-N-({4-[(3-hydroxy-4-methoxyphenyl)amino]-3-nitrophenyl}sulfonyl)-2-(1H-indol-5-yloxy)benzamide] | – | – | – | 2.51 nM | >263262.9 | > 660000 nM
6 | O=C(NS(=O)(=O)c1cnc(OCC2(F)CCOCC2)c(Cl)c1)c1ccc(N2CCN(CC3=C(c4ccc(Cl)cc4)CCC(F)(F)C3)CC2)cc1Oc1cccc2[nH]ncc12 [Example 521, N-({5-chloro-6-[(4-fluorotetrahydro-2H-pyran-4-yl)methoxy]pyridin-3-yl}sulfonyl)-4-(4-{[2-(4-chlorophenyl)-5,5-difluorocyclohex-1-en-1-yl]methyl}piperazin-1-yl)-2-(1H-indazol-4-yloxy)benzamide] | < 0.01 nM | >466.9 | 4.67 nM | – | – | –
7 | CN(C)CCCNc1ccc(S(=O)(=O)NC(=O)c2ccc(N3CCN(Cc4ccccc4-c4ccc(Cl)cc4)CC3)cc2Oc2ccccc2)cc1C#N [Example 90, 4-{4-[(4′-chloro-1,1′-biphenyl-2-yl)methyl]piperazin-1-yl}-N-[(3-cyano-4-{[3-(dimethylamino)propyl]amino}phenyl)sulfonyl]-2-phenoxybenzamide] | – | – | – | 2.13 nM | – | 284 nM
8 | CN(C)CC(=O)N1CCO[C@H](CNc2ccc(S(=O)(=O)NC(=O)c3ccc(N4CCN(CC5=C(c6ccc(Cl)cc6)CC(C)(C)CC5)CC4)cc3Oc3cccc4[nH]cnc34)cc2[N+](=O)[O-])C1 [Example 437, 2-(1H-benzimidazol-4-yloxy)-4-(4-{[2-(4-chlorophenyl)-4,4-dimethylcyclohex-1-en-1-yl]methyl}piperazin-1-yl)-N-{[4-({[(2R)-4-(N,N-dimethylglycyl)morpholin-2-yl]methyl}amino)-3-nitrophenyl]sulfonyl}benzamide] | < 0.01 nM | – | 0.514 nM | – | – | –
9 | CC1(C)CCC(CN2CCN(c3cc(Oc4cccc5[nH]ncc45)c(C(=O)NS(=O)(=O)c4ccc(NCC5(F)CCOCC5)c([N+](=O)[O-])c4)cc3Cl)CC2)=C(c2ccc(Cl)cc2)C1 [Example 511, 5-chloro-4-(4-{[2-(4-chlorophenyl)-4,4-dimethylcyclohex-1-en-1-yl]methyl}piperazin-1-yl)-N-[(4-{[(4-fluorotetrahydro-2H-pyran-4-yl)methyl]amino}-3-nitrophenyl)sulfonyl]-2-(1H-indazol-4-yloxy)benzamide] | < 0.01 nM | >2159.2 | 21.6 nM | – | – | –
10 | CC1(C)CCC(CN2CCN(c3ccc(C(=O)NS(=O)(=O)c4cnc(OC[C@@H]5CN(C6CC6)CCO5)c(Cl)c4)c(Oc4cccc5[nH]cnc45)c3)CC2)=C(c2ccc(Cl)cc2)C1 [Example 503, 2-(1H-benzimidazol-4-yloxy)-N-[(5-chloro-6-{[(2S)-4-cyclopropylmorpholin-2-yl]methoxy}pyridin-3-yl)sulfonyl]-4-(4-{[2-(4-chlorophenyl)-4,4-dimethylcyclohex-1-en-1-yl]methyl}piperazin-1-yl)benzamide] | 0.062 nM | 2356.5 | 147 nM | – | – | –
11 | CC1(C)CCC(CN2CCN(c3ccc(C(=O)NS(=O)(=O)c4cnc(OCC5CCc6nccn6C5)c(Cl)c4)c(Oc4cccc5[nH]ncc45)c3)CC2)=C(c2ccc(Cl)cc2)C1 (stereo not shown) [Example 536, 4-(4-{[2-(4-chlorophenyl)-4,4-dimethylcyclohex-1-en-1-yl]methyl}piperazin-1-yl)-N-{[5-chloro-6-(5,6,7,8-tetrahydroimidazo[1,2-a]pyridin-6-ylmethoxy)pyridin-3-yl]sulfonyl}-2-(1H-indazol-4-yloxy)benzamide] | 0.025 nM | 886.1 | 22.2 nM | – | – | –
12 | CN(C)CCCN(C)c1ccc(S(=O)(=O)NC(=O)c2ccc(N3CCN(Cc4ccccc4-c4ccc(Cl)cc4)CC3)cc2Oc2ccccc2)cc1[N+](=O)[O-] [Example 87, 4-{4-[(4′-chloro-1,1′-biphenyl-2-yl)methyl]piperazin-1-yl}-N-({4-[[3-(dimethylamino)propyl](methyl)amino]-3-nitrophenyl}sulfonyl)-2-phenoxybenzamide] | – | – | – | 0.762 nM | – | 407 nM
13 | CC1(C)CCC(CN2CCN(c3ccc(C(=O)NS(=O)(=O)c4cnc(NC5CCN(C6CC6)CC5)c(Cl)c4)c(Oc4cccc5[nH]cnc45)c3)CC2)=C(c2ccc(Cl)cc2)C1 [Example 449, 2-(1H-benzimidazol-4-yloxy)-N-({5-chloro-6-[(1-cyclopropylpiperidin-4-yl)amino]pyridin-3-yl}sulfonyl)-4-(4-{[2-(4-chlorophenyl)-4,4-dimethylcyclohex-1-en-1-yl]methyl}piperazin-1-yl)benzamide] | 0.24 nM | 74.4 | 17.8 nM | – | – | –
14 | CC1(C)CCC(CN2CCN(c3ccc(C(=O)NS(=O)(=O)c4ccc(NC5CCN(C6CCOCC6)CC5)c([N+](=O)[O-])c4)c(Nc4cccnc4)c3)CC2)=C(c2ccc(Cl)cc2)C1 [Example 397, 4-(4-{[2-(4-chlorophenyl)-4,4-dimethylcyclohex-1-en-1-yl]methyl}piperazin-1-yl)-N-({3-nitro-4-[(1-tetrahydro-2H-pyran-4-ylpiperidin-4-yl)amino]phenyl}sulfonyl)-2-(pyridin-3-ylamino)benzamide] | – | – | – | 23 nM | >28730.6 | > 660000 nM
15 | O=C(NS(=O)(=O)c1ccc(NCC2CCOCC2)c([N+](=O)[O-])c1)c1ccc(N2CCN(Cc3cc(N4CCOCC4)ccc3-c3ccc(Cl)cc3)CC2)cc1Oc1cccc2[nH]ccc12 [Example 198, 4-{4-[(4′-chloro-4-morpholin-4-yl-1,1′-biphenyl-2-yl)methyl]piperazin-1-yl}-2-(1H-indol-4-yloxy)-N-({3-nitro-4-[(tetrahydro-2H-pyran-4-ylmethyl)amino]phenyl}sulfonyl)benzamide] | – | – | – | 3.97 nM | – | > 660 nM
16 | CCN1CCCC1CNC(=O)c1cc(S(=O)(=O)NC(=O)c2ccc(N3CCN(Cc4ccccc4-c4ccc(Cl)cc4)CC3)cc2Oc2ccccc2)ccc1OC (stereo not shown) [Example 33, 4-{4-[(4′-chloro-1,1′-biphenyl-2-yl)methyl]piperazin-1-yl}-N-{[3-({[(1-ethylpyrrolidin-2-yl)methyl]amino}carbonyl)-4-methoxyphenyl]sulfonyl}-2-phenoxybenzamide] | – | – | – | 6.68 nM | – | 333 nM
